Results taken from patent US5574009A, “Method of stimulating myelination of cells” (Trustees of the University Of Pennsylvania, priority 1994, dated 1996).

Tested on: neonatal rat optic nerve cultures
Assay: Mitomycin C treatment of optic nerve cultures
Type: cell-based
Conditions: 25 μg/ml for 30 minutes, PND-1, then 24 or 48 hours
Method: A stock solution of 0.5 mg/ml mitomycin C (Sigma) in HBSS (Gibco) was prepared and stored at 4° C. in the dark. Cultures were treated with 25 μg/ml mitomycin C diluted in N2/0.5% FCS for 30 minutes at 37° C. in the dark. The cultures were washed twice with N2/0.5% FCS and cultured for an additional 24 or 48 hours.
To test whether inhibition of proliferation per se affected the timing of GalC(+) appearance, optic nerve cultures prepared on PND-1 were treated with mitomycin C. After plating, the cells were incubated with 25 μg/ml mitomycin C for 30 minutes. After washing, the cultures were carried for an additional 24 or 48 hours.

Compound: CO[C@@]12[C@H](COC(N)=O)C3=C(C(=O)C(C)=C(N)C3=O)N1C[C@@H]1N[C@@H]12 [mitomycin C]
- numbers of A2B5(+) cells: Decreased numbers of A2B5(+) cells
- proportion of GalC(+) cells: without a concomitant increase in the proportion of GalC(+) cells
